melting point: 94 to 95 °C
SMILES: C[C@H]1C/C=C/C(=O)O[C@@H](C)CC(=O)O[C@@H](C)C/C=C/C(=O)O1 [Example 1]
